Results published in article PMC11247503 (Journal of Medicinal Chemistry, 2024).
Entries after “also recorded” stand apart in the source; their conditions may differ. Where a name gives a salt, the structure may show the parent alone. Read-outs that look alike come from different tables or passages of the source. One block for each compound: values may come before it.

How the values were obtained:
mouse Spns2 [1] = target: T1, mouse Spns2 (Mus musculus, UniProt Q91VM4); settings: read-out: IC50 (Spns2 inhibition); cited from earlier work
T1 construct: expressed in transfected cells; host or cells: HeLa cells (G418-resistant pools)
T1 sequence (Q91VM4 1-549): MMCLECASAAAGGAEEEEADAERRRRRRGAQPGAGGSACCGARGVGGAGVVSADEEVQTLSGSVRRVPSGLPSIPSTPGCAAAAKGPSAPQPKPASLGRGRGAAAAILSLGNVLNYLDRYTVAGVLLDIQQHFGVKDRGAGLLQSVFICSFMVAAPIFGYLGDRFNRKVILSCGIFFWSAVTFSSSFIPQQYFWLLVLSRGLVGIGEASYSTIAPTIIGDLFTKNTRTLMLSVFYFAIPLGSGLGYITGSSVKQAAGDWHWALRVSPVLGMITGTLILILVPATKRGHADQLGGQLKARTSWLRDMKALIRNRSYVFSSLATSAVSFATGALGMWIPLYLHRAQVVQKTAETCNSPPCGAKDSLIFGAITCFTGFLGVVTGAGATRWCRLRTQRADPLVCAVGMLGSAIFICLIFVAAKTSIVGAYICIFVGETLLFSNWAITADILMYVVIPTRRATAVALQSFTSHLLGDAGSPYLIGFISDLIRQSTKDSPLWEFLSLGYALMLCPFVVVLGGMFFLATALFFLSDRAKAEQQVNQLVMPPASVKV

mouse Spns2 [2] = target: T1, mouse Spns2; test: HeLa cell S1P release assay (Spns2 inhibition); format: cell-based; settings: for inhibition at 1 µM: HeLa, read-out: %Inhib. (Spns2 inhibition, percent decrease in S1P secretion relative to control); for %Inhib. (Spns2 inhibition, percent decrease in S1P secretion relative to control): 1 µM
Experimental: With a library of analogs of SLB1122168 containing phenylurea, phenylcarbamate, and benzamide as bioisostere of the benzoxazole, we investigated their potential in inhibiting S1P transport using a HeLa cell assay.[36]−[38],[43] Briefly, in this assay, Spns2 is overexpressed whereas the S1P-degrading enzymes (lyase or phosphatases) were blocked with inhibitors.[44],[45] Inhibition of S1P transport is determined by measuring the amount of S1P in the buffer using LC-MS.
This assay was conducted as reported by Kharel et al.[43] Briefly, compounds were assessed in a HeLa cell assay at a 1 μM test concentration, unless noted otherwise. HeLa cells were transfected with a pcDNA3.1 plasmid encoding mouse Spns2, and pools of cells resistant to G418 were selected. S1P catabolic pathways were suppressed by the addition of 4-deoxypyridoxine (1 mM), NaF (2 mM), and Na3VO4 (0.2 mM). After growing cells to near confluence on 12-well tissue culture dishes, growth media was removed, inhibitors were introduced in release media (serum free medium containing 0.2% fatty acid free BSA), and the cells were incubated for 16–18 h at 37 °C. The BSA with bound S1P was concentrated from the release media by TFA-driven precipitation after addition of the d7-S1P internal standard, the S1P extracted from the protein pellet, and quantified by LC-MS/MS. Lower levels of S1P release into the media indicated greater degrees of Spns2 inhibition. Inhibition is reported as the percent decrease in S1P release relative to the control where no inhibitor was introduced.

[3] = Compound concentrations in plasma of mice after oral dose; format: in vivo, mice (C57BL/6j)
Experimental: We next investigated the potential oral bioavailability of 11i (SLF80821178), which will be a significant advantage over SLB1122168. […] Thus, mice were administered a single 10 mg/kg oral dose of 11i, and compound levels in plasma were quantified.
Figure 7 Compound concentrations in plasma of mice treated with 11i. Three C57BL/6j strain female mice (8–10 weeks old) were treated with a single 10 mg/kg dose of 11i administered PO. Blood samples were collected, and plasma 11i levels were quantified via LC-MS/MS.
Compounds that performed well in the HeLa cell assay were subsequently administered to mice (C57BL/6j strain). Inhibitor (10 mg/kg) or an equivalent dose of vehicle (36.1% PEG400/9.1% ethanol/4.6% solutol/50% H2O) was administered to animals via an intraperitoneal injection or oral gavage. After 6 to 16 h, blood samples were collected. Lymphocyte counts were obtained from 20 μL of mouse blood using a Heska HT5 Element blood analyzer. Plasma S1P concentrations were determined using LC-MS/MS. All animal protocols were approved prior to experimentation by the University of Virginia School of Medicine’s Animal Care and Use Committee.

circulating lymphocytes = test: Circulating lymphocyte counts in mice; format: in vivo, mice (C57BL/6j)
Experimental: (§1) To determine the effect of 11iin vivo, mice were treated with 3, 10, and 30 mg/kg intraperitoneally, and the amount of circulating lymphocytes was quantified. A hallmark of Spns2 inhibition is the decrease in lymphocytes counts, which is a pharmacodynamic marker of target engagement.[54],[55] […] To determine whether blood S1P levels were affected, plasma S1P concentrations were measured via LC-MS. […] The extent by which Spns2 inhibition by knockout or a pharmacological inhibitor affects the S1P level remains unclear. A range of changes from no significant difference[30]−[32] to 45% reduction in plasma S1P levels compared to wild type littermates have been reported.[9],[24],[28],[33]
(§2) Figure 8 Biological evaluation of 11i in five C57BL/6j strain female mice (8–10 weeks old). […] Blood was drawn 4 h postdose. (B) Plasma S1P concentrations in mice treated with 11i are shown relative to vehicle 6 h following IP administration at 3 mg/kg, 10 mg/kg, and 30 mg/kg. […] Blood was drawn 4 h postdose. (D) Plasma S1P concentrations in mice treated with 11i are shown relative to vehicle 4 h post oral administration at 10 mg/kg, 30 mg/kg, and 100 mg/kg. […]
(§3) Compounds that performed well in the HeLa cell assay were subsequently administered to mice (C57BL/6j strain). […] Plasma S1P concentrations were determined using LC-MS/MS. […]

plasma S1P = test: Plasma S1P concentrations in mice; format: in vivo, mice (C57BL/6j)
Experimental: as §1, §2, §3

mice = tested on: mice; parameters: method as in PMID 35609189; settings: dose 30 mg/kg; cited from earlier work
kidney fibrosis = tested on: kidney fibrosis; parameters: method as in PMID 35976996; settings: unilateral ischemia-reperfusion injury; cited from earlier work
[4] = parameters: method as in PMID 37010497; settings: cited from earlier work
[5] = 1 μM inhibitor, HeLa cells, S1P in media by LC-MS/MS

Structure (SMILES): CCCCCCCCCCc1ccc(-c2cn(CC)c(CCCN)n2)cc1 [SLF80721166]
IC50 (mouse Spns2 [1]): 1400 ± 300 nM

inhibition at 1 µM (mouse Spns2 [2]; [5]): ≥ 80% | IC50 (mouse Spns2 [2]; dose-response 1 nM to 10 μM, HeLa cells transfected with Spns2, read-out: IC50, inhibition of S1P release from HeLa cells): 51 ± 3 nM | oral bioavailability ([3]; 10 mg/kg PO): orally bioavailable | Tmax ([3]; female, C57BL/6j, mouse, single 10 mg/kg PO, plasma, read-out: tmax (time of maximum circulating level)): 4 h | compound exposure at tmax (maximum plasma concentration) ([3]; single 10 mg/kg PO, plasma): 1.2 µM | time circulating levels remained elevated above 0.5 μM ([3]; single 10 mg/kg PO, plasma): more than 8 h
Structure (SMILES): CCCCCCCCCCc1ccc(NC(=O)N2CCNCC2)cc1.Cl [11i, N-(4-Decylphenyl)piperazine-1-carboxamide Hydrochloride]
decrease in lymphocyte count, maximum level (circulating lymphocytes; IP 3, 10 and 30 mg/kg, blood 4 h postdose): 50% | reduction in circulating lymphocyte counts (circulating lymphocytes; route not stated at this place (abstract)): ~50% | change in plasma S1P levels (plasma S1P; IP 3, 10 and 30 mg/kg, 6 h): no change | change in plasma S1P levels (plasma S1P; PO 10, 30 and 100 mg/kg, 4 h): no change

Structure (SMILES): CCCCCCCCCCc1ccc(-c2noc(CCCN)n2)cc1.Cl [SLF1081851]
inhibition at 1 µM (mouse Spns2 [2]; [5]): 44 ± 5% | toxicity to mice (mice): toxic | effect on kidney fibrosis (kidney fibrosis): ameliorated kidney fibrosis

inhibition at 1 µM (mouse Spns2 [2]; [5]): 85 ± 2%
Structure (SMILES): CCCCCCCCCCc1ccc2nc(NC[C@H]3CCNC3)oc2c1.Cl [SLB1122168]
oral bioavailability [4]: not orally bioavailable; also recorded: poor oral bioavailability

%Inhib. (Spns2 inhibition, percent decrease in S1P secretion relative to control) (mouse Spns2 [2]; [5]): 44 ± 1% | %Inhib. (Spns2 inhibition, percent decrease in S1P secretion relative to control) (mouse Spns2 [2]; 1 μM inhibitor, HeLa cells, S1P in media by LC-MS/MS, listed as 4i): 68%
Structure (SMILES): CCCCCCCCCCc1ccc(C(=O)N2CCN[C@@H](C)C2)cc1.Cl [(S)-4i, (S)-(4-Decylphenyl)(3-methylpiperazin-1-yl)methanone Hydrochloride]

inhibition at 1 µM (mouse Spns2 [2]; [5]): 59 ± 1%
Structure (SMILES): CCCCCCCCCCc1ccc(NC(=O)NC2CNC2)cc1 [11b, 1-(Azetidin-3-yl)-3-(4-decylphenyl)urea 2,2,2-Trifluoroacetate]

inhibition at 1 µM (mouse Spns2 [2]; [5]): 86%
Structure (SMILES): CCCCCCCCCCc1ccc(NC(=O)N[C@@H]2CCCNC2)cc1 [(R)-11e, (R)-1-(4-Decylphenyl)-3-(piperidin-3-yl)urea Hydrochloride]

inhibition at 1 µM (mouse Spns2 [2]; [5]): 23 ± 1%
Structure (SMILES): CCCCCCCCCCc1ccc(C(=S)NCCCN)cc1 [15a, N-(3-Aminopropyl)-4-decylbenzothioamide Hydrochloride]

inhibition at 1 µM (mouse Spns2 [2]; [5]): 34 ± 9%
Structure (SMILES): CCCCCCCCCCc1ccc(NC(=O)NC2CCNCC2)cc1 [11h, 1-(4-Decylphenyl)-3-(piperidin-4-yl)urea Hydrochloride]

inhibition at 1 µM (mouse Spns2 [2]; [5]): 43 ± 4%
Structure (SMILES): CCCCCCCCCCc1ccc(NC(=O)N2CCN(C)CC2)cc1 [18a, N-(4-Decylphenyl)-4-methylpiperazine-1-carboxamide Hydrochloride]

Structure (SMILES): CCCCCCCCCCc1ccc(C(=O)NC2CNC2)cc1 [4b, N-(Azetidin-3-yl)-4-decylbenzamide 2,2,2-Trifluoroacetate]
inhibition at 1 µM (mouse Spns2 [2]): 77 ± 1%
